In US9125913B2, “Bcl-2-selective apoptosis-inducing agents for the treatment of cancer and immune diseases” (AbbVie Inc., priority 2008, dated 2015):

These compounds were tested on GST-Bcl-2 (assay: TR-FRET binding assay, Bcl-2). Conditions: TR-FRET Ki values.
Outline: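 Compounds serially diluted in DMSO from 50 μM (2× starting concentration, 10% DMSO), mixed with GST-tagged protein, F-Bak peptide probe and Tb-labeled antibody, incubated 3 h at room temperature.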
`CC1(C)CCC(CN2CCN(c3ccc(C(=O)NS(=O)(=O)c4ccc(NC5CCN(C6Cc7ccccc7C6)CC5)c([N+](=O)[O-])c4)c(Oc4cccc5[nH]ccc45)c3)CC2)=C(c2ccc(Cl)cc2)C1` [EXAMPLE 227, 4-(4-{[2-(4-chlorophenyl)-4,4-dimethylcyclohex-1-en-1-yl]methyl}piperazin-1-yl)-N-[(4-{[1-(2,3-dihydro-1H-inden-2-yl)piperidin-4-yl]amino}-3-nitrophenyl)sulfonyl]-2-(1H-indol-4-yloxy)benzamide] was tested, and the “Binding selectivity ratio (Bcl-XL Ki/Bcl-2 Ki)” value (from here on “Binding selectivity ratio”) was >96.6.
`CC1(C)CCC(CN2CCN(c3ccc(C(=O)NS(=O)(=O)c4ccc(NC5CCN(C6Cc7ccccc7C6)CC5)c([N+](=O)[O-])c4)c(Oc4ccc5[nH]ccc5c4)c3)CC2)=C(c2ccc(Cl)cc2)C1` [EXAMPLE 228, 4-(4-{[2-(4-chlorophenyl)-4,4-dimethylcyclohex-1-en-1-yl]methyl}piperazin-1-yl)-N-[(4-{[1-(2,3-dihydro-1H-inden-2-yl)piperidin-4-yl]amino}-3-nitrophenyl)sulfonyl]-2-(1H-indol-5-yloxy)benzamide] was tested, and the “Binding selectivity ratio” value was >141.4.
In the case of `CC1(C)CCC(CN2CCN(c3ccc(C(=O)NS(=O)(=O)c4ccc(NCC5(N6CCOCC6)CCCCC5)c([N+](=O)[O-])c4)c(Oc4ccc5[nH]ccc5c4)c3)CC2)=C(c2ccc(Cl)cc2)C1` [EXAMPLE 229, 4-(4-{[2-(4-chlorophenyl)-4,4-dimethylcyclohex-1-en-1-yl]methyl}piperazin-1-yl)-2-(1H-indol-5-yloxy)-N-[(4-{[(1-morpholin-4-ylcyclohexyl)methyl]amino}-3-nitrophenyl)sulfonyl]benzamide], the “Binding selectivity ratio” value is reported as >13.4.
In the case of `CC1(C)CCC(CN2CCN(c3ccc(C(=O)NS(=O)(=O)c4ccc(NC5CCN(Cc6nccs6)CC5)c([N+](=O)[O-])c4)c(Oc4ccc5[nH]ccc5c4)c3)CC2)=C(c2ccc(Cl)cc2)C1` [EXAMPLE 230, 4-(4-{[2-(4-chlorophenyl)-4,4-dimethylcyclohex-1-en-1-yl]methyl}piperazin-1-yl)-2-(1H-indol-5-yloxy)-N-[(3-nitro-4-{[1-(1,3-thiazol-2-ylmethyl)piperidin-4-yl]amino}phenyl)sulfonyl]benzamide], the “Binding selectivity ratio” value is reported as >74.8.
`CC1(C)CCC(CN2CCN(c3ccc(C(=O)NS(=O)(=O)c4ccc(NC5CCN(Cc6cscn6)CC5)c([N+](=O)[O-])c4)c(Oc4ccc5[nH]ccc5c4)c3)CC2)=C(c2ccc(Cl)cc2)C1` [EXAMPLE 231, 4-(4-{[2-(4-chlorophenyl)-4,4-dimethylcyclohex-1-en-1-yl]methyl}piperazin-1-yl)-2-(1H-indol-5-yloxy)-N-[(3-nitro-4-{[1-(1,3-thiazol-4-ylmethyl)piperidin-4-yl]amino}phenyl)sulfonyl]benzamide] was tested, and the “Binding selectivity ratio” value was >718.8.
With `CC1(C)CCC(CN2CCN(c3ccc(C(=O)NS(=O)(=O)c4ccc(NCC5(CO)CCOCC5)c([N+](=O)[O-])c4)c(Oc4ccc5[nH]ccc5c4)c3)CC2)=C(c2ccc(Cl)cc2)C1` [EXAMPLE 232, 4-(4-{[2-(4-chlorophenyl)-4,4-dimethylcyclohex-1-en-1-yl]methyl}piperazin-1-yl)-N-{[4-({[4-(hydroxymethyl)tetrahydro-2H-pyran-4-yl]methyl}amino)-3-nitrophenyl]sulfonyl}-2-(1H-indol-5-yloxy)benzamide] the “Binding selectivity ratio” value was 429.1.
In the case of `CC1(C)CCC(CN2CCN(c3ccc(C(=O)NS(=O)(=O)c4ccc(NN5CCN(CCO)CC5)c([N+](=O)[O-])c4)c(Oc4ccc5[nH]ccc5c4)c3)CC2)=C(c2ccc(Cl)cc2)C1` [EXAMPLE 233, 4-(4-{[2-(4-chlorophenyl)-4,4-dimethylcyclohex-1-en-1-yl]methyl}piperazin-1-yl)-N-[(4-{[4-(2-hydroxyethyl)piperazin-1-yl]amino}-3-nitrophenyl)sulfonyl]-2-(1H-indol-5-yloxy)benzamide], the “Binding selectivity ratio” value is reported as >2714.3.
For `CN1CC[C@H](Nc2ccc(S(=O)(=O)NC(=O)c3ccc(N4CCN(CC5=C(c6ccc(Cl)cc6)CC(C)(C)CC5)CC4)cc3Oc3ccc4[nH]ccc4c3)cc2[N+](=O)[O-])C1` [EXAMPLE 234, 4-(4-{[2-(4-chlorophenyl)-4,4-dimethylcyclohex-1-en-1-yl]methyl}piperazin-1-yl)-2-(1H-indol-5-yloxy)-N-[(4-{[(3S)-1-methylpyrrolidin-3-yl]amino}-3-nitrophenyl)sulfonyl]benzamide], the “Binding selectivity ratio” value was 66.3.
For `CC1(C)CCC(CN2CCN(c3ccc(C(=O)NS(=O)(=O)c4ccc(NC5CCN(CCCF)CC5)c([N+](=O)[O-])c4)c(Oc4ccc5[nH]ccc5c4)c3)CC2)=C(c2ccc(Cl)cc2)C1` [EXAMPLE 235, 4-(4-{[2-(4-chlorophenyl)-4,4-dimethylcyclohex-1-en-1-yl]methyl}piperazin-1-yl)-N-[(4-{[1-(3-fluoropropyl)piperidin-4-yl]amino}-3-nitrophenyl)sulfonyl]-2-(1H-indol-5-yloxy)benzamide], the “Binding selectivity ratio” value was 231.4.
`CC1(C)CCC(CN2CCN(c3ccc(C(=O)NS(=O)(=O)c4ccc(NCC5CCOCC5)c([N+](=O)[O-])c4)c(Oc4ccc5[nH]ccc5c4)c3)CC2CO)=C(c2ccc(Cl)cc2)C1` (stereo not shown) [EXAMPLE 236, 4-[4-{[2-(4-chlorophenyl)-4,4-dimethylcyclohex-1-en-1-yl]methyl}-3-(hydroxymethyl)piperazin-1-yl]-2-(1H-indol-5-yloxy)-N-({3-nitro-4-[(tetrahydro-2H-pyran-4-ylmethyl)amino]phenyl}sulfonyl)benzamide] was tested, and the “Binding selectivity ratio” value was >1787.6.
For `CC1(C)CCC(CN2CCN(c3ccc(C(=O)NS(=O)(=O)c4ccc(NCC5(N)CCOCC5)c([N+](=O)[O-])c4)c(Oc4ccc5[nH]ccc5c4)c3)CC2CO)=C(c2ccc(Cl)cc2)C1` (stereo not shown) [EXAMPLE 237, N-[(4-{[(4-aminotetrahydro-2H-pyran-4-yl)methyl]amino}-3-nitrophenyl)sulfonyl]-4-[4-{[2-(4-chlorophenyl)-4,4-dimethylcyclohex-1-en-1-yl]methyl}-3-(hydroxymethyl)piperazin-1-yl]-2-(1H-indol-5-yloxy)benzamide], the “Binding selectivity ratio” value was 668.3.
For `CC1(C)CCC(CN2CCN(c3ccc(C(=O)NS(=O)(=O)c4ccc(NCC5(O)CCCCC5)c([N+](=O)[O-])c4)c(Oc4ccc5[nH]ccc5c4)c3)CC2)=C(c2ccc(Cl)cc2)C1` [EXAMPLE 238, 4-(4-{[2-(4-chlorophenyl)-4,4-dimethylcyclohex-1-en-1-yl]methyl}piperazin-1-yl)-N-[(4-{[(1-hydroxycyclohexyl)methyl]amino}-3-nitrophenyl)sulfonyl]-2-(1H-indol-5-yloxy)benzamide], the “Binding selectivity ratio” value was >1534.3.
`COCCNc1ccc(S(=O)(=O)NC(=O)c2ccc(N3CCN(CC4=C(c5ccc(Cl)cc5)CC(C)(C)CC4)CC3)cc2Oc2cccc3[nH]ccc23)cc1[N+](=O)[O-]` [EXAMPLE 239, 4-(4-{[2-(4-chlorophenyl)-4,4-dimethylcyclohex-1-en-1-yl]methyl}piperazin-1-yl)-2-(1H-indol-4-yloxy)-N-({4-[(2-methoxyethyl)amino]-3-nitrophenyl}sulfonyl)benzamide] was tested, and the “Binding selectivity ratio” value was 430.9.
